Source: patent publication US10076519B2 (CYTOKINETICS, INC., priority 2010, dated 2018)

Tested on: rabbit skeletal myofibrils (fast skeletal myofibrils)
Assay: Activation of fast skeletal myofibrils (PUMA assay, PK/LDH-coupled ATPase at pCa25)
Type: biochemical
Details: AC1.4 determined according to the procedure of Example 39; reported as class symbols
Summary of the method: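 Detergent-washed rabbit psoas myofibrils (~90% fast fibres, calcium-regulated) assayed at calcium giving 25% of maximal ATPase rate (pCa25). ADP turnover coupled via pyruvate kinase/lactate dehydrogenase to NADH oxidation, read at 340 nm. Buffer 12 mM PIPES, 2 mM MgCl2, 1 mM DTT, pH 6.8; AC1.4 values derived.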

Row | Compound | Mean AC1.4
1 | CC(C)(C)OC(=O)NCCNc1n[nH]c2ccc(-c3ccc(NCC(C)(C)c4ccc(F)cc4)nn3)cc12 [(tert-butoxy)-N-(2-{[5-(6-{[2-(4-fluorophenyl)-2-methylpropyl]amino}pyridazin-3-yl)(1H-indazol-3-yl)]amino}ethyl)carboxamide] | A (A=<1 uM)
2 | CC(C)(C)OC(=O)N(CC(C)(C)c1ncccc1F)c1ccc(-c2ccc3[nH]c(O)nc3c2)nn1 [(tert-butoxy)-N-[2-(3-fluoro(2-pyridyl))-2-methylpropyl]-N-[6-(2-hydroxybenzimidazol-5-yl)pyridazin-3-yl]carboxamide] | D (D=>20 uM)
3 | CC(C)(C)OC(=O)N(CC(C)(C)c1ccc(F)cc1)c1ccc(-c2ccc3[nH]c(=O)c(=O)[nH]c3c2)nn1 [(tert-butoxy)-N-[6-(2,3-dioxo(1,4-dihydroquinoxalin-6-yl))pyridazin-3-yl]-N-[2-(4-fluorophenyl)-2-methylpropyl]carboxamide] | D (D=>20 uM)
4 | CC(C)(C)OC(=O)NCc1cccc(-c2ccc(NCC(C)(C)c3ccc(F)cc3)nn2)c1 [(tert-butoxy)-N-{[3-(6-{[2-(4-fluorophenyl)-2-methylpropyl]amino}pyridazin-3-yl)phenyl]methyl}carboxamide] | B (B=1-10 uM)
5 | OCC1(CNc2ccc(-c3ccc4[nH]ncc4c3)nn2)CCC1 [({[(6-(1H-indazol-5-yl)pyridazin-3-yl)amino]methyl}cyclobut-yl)methan-1-ol] | D (D=>20 uM)
6 | COC(=O)c1ccc(NCC(C)(C)c2ccc(F)cc2)nn1 [Methyl 6-(2-(4-fluorophenyl)-2-methylpropylamino)pyridazine-3-carboxylate] | C (C=10-20 uM)

Same assay, conditions: median AC1.4 class, procedure of Example 39

Row | Mean AC1.4 | Compound
7 | A (A=<1 uM) | O=C(NCc1cnc(-c2ccc(NCC3(c4ncccc4F)CCC3)nn2)s1)[C@H]1CCCN1 [((2R)pyrrolidin-2-yl)-N-({2-[6-({[(3-fluoro(2-pyridyl))cyclobutyl]methyl}ami-no)pyridazin-3-yl](1,3-thiazol-5-yl)}methyl)carboxamide]
8 | A (A=<1 uM) | O=C(NCc1cnc(-c2ccc(NCC3(c4ncccc4F)CCC3)nn2)s1)[C@H]1C[C@@H](F)CN1 [((2R,4R)-4-fluoropyrrolidin-2-yl)-N-({2-[6-({[(3-fluoro(2-pyridyl))cyclobutyl]methyl}ami-no)pyridazin-3-yl](1,3-thiazol-5-yl)}methyl)carboxamide]
9 | A (A=<1 uM) | O=CN1CC(F)(F)C[C@H]1C(=O)NCc1cnc(-c2ccc(NCC3(c4ncccc4F)CCC3)nn2)s1 [((2S)-4,4-difluoro-1-formylpyrrolidin-2-yl)-N-({2-[6-({[(3-fluoro(2-pyridyl))cyclobutyl]methyl}ami-no)pyridazin-3-yl](1,3-thiazol-5-yl)}methyl)carboxamide]
10 | A (A=<1 uM) | O=C(NCc1cnc(-c2ccc(NCC3(c4ncccc4F)CCC3)nn2)s1)[C@@H]1CC(F)(F)CN1 [((2S)-4,4-difluoropyrrolidin-2-yl)-N-({2-[6-({[(3-fluoro(2-pyridyl))cyclobutyl]methyl}ami-no)pyridazin-3-yl](1,3-thiazol-5-yl)}methyl)carboxamide]
11 | A (A=<1 uM) | CC(=O)N1CCN[C@H](C(=O)NCc2cnc(-c3ccc(NCC4(c5ncccc5F)CCC4)nn3)s2)C1 [((2S)-4-acetylpiperazin-2-yl)-N-({2-[6-({[(3-fluoro(2-pyridyl))cyclobutyl]methyl}ami-no)pyridazin-3-yl](1,3-thiazol-5-yl)}methyl)carboxamide]
12 | A (A=<1 uM) | O=C1CC[C@@H](C(=O)NCc2cnc(-c3ccc(NCC4(c5ncccc5F)CCC4)nn3)s2)N1 [((2S)-5-oxopyrrolidin-2-yl)-N-({2-[6-({[(3-fluoro(2-pyridyl))cyclobutyl]methyl}ami-no)pyridazin-3-yl](1,3-thiazol-5-yl)}methyl)carboxamide]
13 | A (A=<1 uM) | O=C(NCc1cnc(-c2ccc(NCC3(c4ncccc4F)CCC3)nn2)s1)[C@@H]1CCCN1 [((2S)pyrrolidin-2-yl)-N-({2-[6-({[(3-fluoro(2-pyridyl))cyclobutyl]methyl}ami-no)pyridazin-3-yl](1,3-thiazol-5-yl)}methyl)carboxamide]
14 | B (B=1-10 uM) | CC(C)(CNc1ccc(-c2ncc(CNC(=O)[C@@H]3CCCN3)s2)nn1)c1ncccc1F [((2S)pyrrolidin-2-yl)-N-{[2-(6-{[2-(3-fluoro(2-pyridyl))-2-methylpropyl]amino}pyridazin-3-yl)(1,3-thiazol-5-yl)]methyl}carboxamide]
15 | A (A=<1 uM) | O=C(NCc1cnc(-c2ccc(NCC3(c4ncccc4F)CCC3)nn2)s1)[C@@H]1CS(=O)(=O)CCN1 [((3R)-1,1-dioxo(1,4-thiazaperhydroin-3-yl))-N-({2-[6-({[(3-fluoro(2-pyridyl))cyclobutyl]methyl}ami-no)pyridazin-3-yl](1,3-thiazol-5-yl)}methyl)carboxamide]
16 | A (A=<1 uM) | O=C(NCc1cnc(-c2ccc(NCC3(c4ncccc4F)CCC3)nn2)s1)[C@H]1CS(=O)(=O)CCN1 [((3S)-1,1-dioxo(1,4-thiazaperhydroin-3-yl))-N-({2-[6-({[(3-fluoro(2-pyridyl))cyclobutyl]methyl}ami-no)pyridazin-3-yl](1,3-thiazol-5-yl)}methyl)carboxamide]
17 | A (A=<1 uM) | O=C1CC[C@H](C(=O)NCc2cnc(-c3ccc(NCC4(c5ncccc5F)CCC4)nn3)s2)CN1 [((3S)-6-oxo(3-piperidyl))-N-({2-[6-({[(3-fluoro(2-pyridyl))cyclobutyl]methyl}ami-no)pyridazin-3-yl](1,3-thiazol-5-yl)}methyl)carboxamide]
18 | A (A=<1 uM) | O=C1NC[C@@H](C(=O)NCc2cnc(-c3ccc(NCC4(c5ncccc5F)CCC4)nn3)s2)N1 [((4S)-2-oxoimidazolidin-4-yl)-N-({2-[6-({[(3-fluoro(2-pyridyl))cyclobutyl]methyl}ami-no)pyridazin-3-yl](1,3-thiazol-5-yl)}methyl)carboxamide]
19 | A (A=<1 uM) | CC(OC(=O)NC(C)(C)C(=O)NCc1cnc(-c2ccc(NCC3(c4ncccc4F)CCC3)nn2)s1)OC(=O)C(C)C (centres unmarked) [(N-{1-[N-({2-[6-({[(3-fluoro(2-pyridyl))cyclobutyl]methyl}ami-no)pyridazin-3-yl](1,3-thiazol-5-yl)}methyl)carbamoyl]-isopropyl}carbamoyloxy)ethyl 2-methylpropanoate]
20 | A (A=<1 uM) | NC1(C(=O)NCc2cnc(-c3ccc(NCC4(c5ncccc5F)CCC4)nn3)s2)CC1 [(aminocyclopropyl)-N-({2-[6-({[(3-fluoro(2-pyridyl))cyclobutyl]methyl}ami-no)pyridazin-3-yl](1,3-thiazol-5-yl)}methyl)carboxamide]
21 | B (B=1-10 uM) | c1ccc(-c2ccc(NC3(c4ccccc4)CCC3)nn2)cc1 [(phenylcyclobutyl)(6-phenylpyridazin-3-yl)amine]
22 | B (B=1-10 uM) | CS(=O)(=O)NCc1cnc(-c2ccc(NCC3(c4ncccc4F)CCC3)nn2)s1 [({2-[6-({[(3-fluoro(2-pyridyl))cyclobutyl]methyl}ami-no)pyridazin-3-yl](1,3-thiazol-5-yl)}methyl)(methylsulfonyl)amine]

Same assay, conditions: median AC1.4 reported as class; procedure of Example 39

Row | Mean AC1.4 | Compound
23 | A (A=<1 uM) | O=C(NCc1cnc(-c2ccc(NCC3(c4ncccc4F)CCC3)nn2)s1)[C@@H]1CCN1 [((2S)azetidin-2-yl)-N-({2-[6-({[(3-fluoro(2-pyridyl))cyclobutyl]methyl}ami-no)pyridazin-3-yl](1,3-thiazol-5-yl)}methyl)carboxamide]
